From patent US12115141B2, “Diagnosis of diabetes by detecting aggregated amylin in erythrocytes” (University of Kentucky Research Foundation, priority 2018, dated 2024)
Like-named read-outs stand apart in the source and are kept apart here. Each block holds one compound with its values, some of them ahead of it. Where no end group is shown, it is not given here.

Tests used:
[1] = target: T1, amylin (Homo sapiens, UniProt P10997); assay: Amylin aggregation with 14,15-EET (FIG. 15A); assay type: biochemical
T1 construct: is a 37-amino acid peptide synthesized and co-secreted with insulin
T1 sequence (P10997 34-70 limits assumed): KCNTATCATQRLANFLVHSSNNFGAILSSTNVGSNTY

[2] = test system: cardiac myocytes; assay: Amylin incorporation in cardiac myocytes ex vivo (FIG. 15B); assay type: cell-based
Experimental: Cardiac myocytes were isolated from rats in all rat groups. Isolated myocytes are used for testing myocyte accumulation of amylin (by ELISA and Western blot, as shown before^8,10), sarcolemmal structural integrity (dye leakage assay, electron microscopy, LC-MS/MS and fluorescent markers) and myocyte Ca^2+ cycling (see below). Each experiment is performed on hearts/myocytes from a number of rats/group. Calculation of the minimum sample size with a two-tail t-test considering α=0.05 and 1−β=0.8; performed with GPower 3.1.9.2.

[3] = test system: RBCs / cultured vascular endothelial cells; assay: RBC adhesion assay on cultured vascular endothelial cells; assay type: cell-based, rat
Experimental: RBCs collected from each HIP rat group (normal, pre-diabetes, diabetes, ±high-fat diet) are infused into AKO rats (300 μL RBCs, daily, 7 days, q.d., via the tail vein). Because diabetes develops later (by 6 mo) in female vs. male HIP rats, AKO rats are matched for age and sex to HIP rats providing the RBCs for infusion. At the end of infusion period, rats are sacrificed, perfused with saline through a catheter implanted into the right external jugular vein to wash out the blood from blood vessels, followed by heart collection and paraffin embedding. Confocal microscopy is used to identify the attachment of amylin-loaded RBCs to vascular endothelium (as in FIG. 5A). Before analysis, heart sections are incubated with 1% Sudan black to block autofluorescence. Control sections with either omitted primary or secondary antibodies are used to establish specific staining. […] Adherence is calculated as percentage of optical density of adhered Hb (as in FIG. 5C).
In some embodiments, adult rat microvascular endothelial cells (RA-6024, Cell Biologics, IL) were cultured on 96-wells cell culture plate coated with cell attachment factor solution (123-100, Sigma, MO). […] The amount of hemoglobin in each well was measured from the optical density (OD) as described above. Adherence was calculated as the percentage of OD of adhered hemoglobin/(OD of total hemoglobin×dilution factor).

[4] = test system: WT rat RBCs; assay: RBC shape by flow cytometry after incubation with human amylin; assay type: cell-based
Experimental: In all rat groups (±high-fat diet), the RBC shape distributions are analyzed by FACScan flow cytometry (Becton Dickinson LSRII) as a function of characteristic RBC amylin levels, as in FIG. 4D. The Pearson coefficient of dissymmetry (PCD) shown in FIG. 4D reflects the sphericity of RBCs (PCD=0 indicates RBC spherical shape).
In some embodiments, RBCs (1×10^7 cells) were aliquoted to assay tubes, washed twice with 2 mL incubation buffer (0.5% BSA in PBS), and resuspended in 100 μL incubation buffer. RBCs were incubated with an anti-amylin antibody (1:200, T-4157, Bachem-Peninsula Laboratories, CA) for 1 hour on ice, washed twice with PBS by centrifugation at 1000×g for 1 minute and then incubated with goat anti-rabbit Alexa Fluor® 488 (A11029, Invitrogen, MA) for 30 min on ice. RBCs were then washed twice before re-suspension in 200 μl PBS, and analyzed by flow cytometer (Becton Dickinson LSRII) within 90 min. To assess the cell shape, RBCs were first gated on a forward scatter (FSC)/side scatter (SSC) plot. The R1 events arevisualized using a FSC-A/FSC-H dot plot. For detecting amylin deposited on RBCs, the cells were first gated on a forward scatter (FSC)/side scatter (SSC) plot. RBCs were further gated to determine the amylin signal (Alexa 488), using negative control (no antibody) and positive control to set the upper and lower boundaries.

[5] = test system: diabetic UCD rats; assay: Intravenous aggregated human amylin in diabetic UCD rats; assay type: in vivo, rat
Experimental: To examine further a possible ‘amylin stress” on oxygen-sensing pathways, aggregated human amylin (hA) (0.08 μg/g body weight) was intravenously administered to diabetic UCD rats, daily, for one week. […] This acute “amylin stress” provoked an increase in plasma EPO level (FIG. 23E; the “after hA inj” rat group) and no difference in renal HIF-2α and HIF-1α levels in whole kidney tissue homogenate (FIG. 23F).

[6] = test system: AKO mice; details: cited from earlier work; for amylin deposits in the myocardium: i.v. q.d., 7 days
[7] = test system: HIP rats; details: cited from earlier work
[8] = kidney tissue homogenates, FIG. 23G

amylin aggregation [1]: reduced
Compound: CCCCCC1OC1C/C=C\C/C=C\C/C=C\CCCC(=O)O (racemic) [14,15-EET, (±)14(15)-EET]
amylin incorporation in cardiac myocytes [2]: reduced | adhesion of HIP rat RBCs to cultured endothelial cells ([3]; ex vivo incubation, FIG. 22D): reduced

Arginase 1 protein levels [5, 8]: elevated | arginase 2 protein expression [5, 8]: no significant change
Compound: human amylin: 37-amino acid amyloid-forming peptide (islet amyloid polypeptide; IAPP), used recombinant/synthetic, aggregated (KCNTATCATQRLANFLVHSSNNFGAILSSTNVGSNTY)
RBC adherence to cultured endothelial cells ([3]; WT rat RBCs incubated 50 μmol/L, 2 h, FIG. 5C): increased | structural change of RBCs (rounded shape) ([4]; 50 μmol/L, 2 h): replicated | morphological change of RBCs (PCD) ([4]; 4 hours, FIG. 27): replicated | amylin deposition on RBCs ([5]; 0.08 μg/g body weight i.v. daily, one week, FIG. 23D): amylin deposition on RBCs | plasma EPO level ([5]; 0.08 μg/g i.v. daily, one week, vs baseline, FIG. 23E): increase | renal HIF-2α and HIF-1α levels ([5]; whole kidney tissue homogenate, FIG. 23F): no difference | Sarcolemmal Ca2+ leak and Ca2+ transients ([6]; females): no significant changes | amylin deposits in the myocardium [6]: showed amylin deposits in the myocardium | Sarcolemmal Ca2+ leak and Ca2+ transients ([6]; myocytes from male AKO mice): increased

Compound: CC(=O)N1CCC(NC(=O)NC23CC4CC(CC(C4)C2)C3)CC1 [APAU]
amylin incorporation into RBCs and cardiac myocytes ([7]; pre-diabetic HIP rats): lower | heart function ([7]; pre-diabetic HIP rats, prior study): improved | levels of aggregated amylin in blood and cardiac myocytes ([7]; pre-diabetic male HIP rats, 10 weeks, prior study): lower levels

Compound: rodent amylin: non-amyloidogenic (i.e., monomeric) rodent amylin (KCNTATCATQRLANFLVRSSNNLGPVLPPTNVGSNTY; ends and bridges not checked; cysteine pairing not given here; UniProt P12969 38-74, looked up)
amylin deposits in the myocardium [6]: not | Sarcolemmal Ca2+ leak and Ca2+ transients ([6]; rat amylin-infused mice): no significant changes
